System: HBV
Assay: HBV-DNA antiviral assay using HepG2.117 cells (intracellular HBV DNA by qPCR)
Assay type: cell-based, genotype D HBV
Conditions: Hepatitis B virus, 72 h, HBV DNA inhibition, 3 days incubation, 2% DMSO
Summary of the method: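 Endpoints are intracellular HBV DNA by qPCR (interpolated from a gBlock standard curve) and ATP-based viability in duplicate plates. Doxycycline-free HepG2.117 Tet-off cells received compounds (9 concentrations, 4-fold steps, 2% DMSO) for 3 days. Inhibition normalised to DMSO wells; EC50/EC90/CC50 by curve fitting.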

| SMILES | EC50 [nM] |
| --- | --- |
| CNc1n[nH]c2cc(-n3c(=O)c4c(n5ncc(CC(C)C)c35)CN(C(=O)c3ccc(Br)c(Cl)c3)[C@@H](C)C4)ccc12 (stereo in doubt) [Compound 57b, rac-(11S)-12-(4-bromo-3-chloro-benzoyl)-5-isobutyl-11-methyl-7-[3-(methylamino)-1H-indazol-6-yl]-2,3,7,12-tetrazatricyclo[7.4.0.0^2,6]trideca-1(9),3,5-trien-8-one] | 50 to 500 |
| Cc1ncnn1-c1ccc(-n2c(=O)c3c(n4ncc(Cc5ccccc5)c24)CN(C(=O)c2ccc(Br)c(C(F)(F)F)c2)CC3)cc1 [Compound 36, 5-benzyl-12-[4-bromo-3-(trifluoromethyl)benzoyl]-7-[4-(5-methyl-1,2,4-triazol-1-yl)phenyl]-2,3,7,12-tetrazatricyclo[7.4.0.0^2,6]trideca-1(9),3,5-trien-8-one] | < 50 |
| CNC(=O)c1ccc(-n2c(=O)c3c(n4ncc(Cc5ccccc5)c24)CN(C(=O)c2ccc(Br)c(C(F)F)c2)CC3)cc1 [Compound 3, 4-[5-benzyl-12-[4-bromo-3-(difluoromethyl)benzoyl]-8-oxo-2,3,7,12-tetrazatricyclo[7.4.0.0^2,6]trideca-1(9),3,5-trien-7-yl]-N-methyl-benzamide] | < 50 |
| CNC(=O)c1ccc(-n2c(=O)c3c(n4ncc(CC(C)C)c24)CN(C(=O)c2ccc(Br)c(Cl)c2)[C@@H](C)C3)cc1 (stereo in doubt) [Compound 55b, N-methyl-4-[rac-(11S)-12-(4-bromo-3-chloro-benzoyl)-5-isobutyl-11-methyl-8-oxo-2,3,7,12-tetrazatricyclo[7.4.0.0^2,6]trideca-1(9),3,5-trien-7-yl]benzamide] | 50 to 500 |
| CNc1n[nH]c2cc(-n3c(=O)c4c(n5ncc(CC(C)C)c35)CN(C(=O)c3ccc(Br)c(Cl)c3)[C@H](C)C4)ccc12 (stereo in doubt) [Compound 57a, rac-(11R)-12-(4-bromo-3-chloro-benzoyl)-5-isobutyl-11-methyl-7-[3-(methylamino)-1H-indazol-6-yl]-2,3,7,12-tetrazatricyclo[7.4.0.0^2,6]trideca-1(9),3,5-trien-8-one] | < 50 |
| Cc1cnnn1-c1ccc(-n2c(=O)c3c(n4ncc(Cc5ccccc5)c24)CN(C(=O)c2ccc(Br)c(C(F)(F)F)c2)CC3)cc1 [Compound 34, 5-benzyl-12-[4-bromo-3-(trifluoromethyl)benzoyl]-7-[4-(5-methyltriazol-1-yl)phenyl]-2,3,7,12-tetrazatricyclo[7.4.0.0^2,6]trideca-1(9),3,5-trien-8-one] | < 50 |
| C[C@H]1Cc2c(n3ncc(CC4CC4)c3n(-c3ccc(-c4nncn4C)cc3)c2=O)CN1C(=O)c1ccc(Br)c(C(F)(F)F)c1 (stereo in doubt) [Compound 40b, rac-(11S)-12-[4-bromo-3-(trifluoromethyl)benzoyl]-5-(cyclopropylmethyl)-11-methyl-7-[4-(4-methyl-1,2,4-triazol-3-yl)phenyl]-2,3,7,12-tetrazatricyclo[7.4.0.0^2,6]trideca-1(9),3,5-trien-8-one] | 50 to 500 |
| C[C@H]1Cc2c(n3ncc(Cc4ccccc4)c3n(-c3ccc(-c4ncnn4C)cc3)c2=O)CN1C(=O)c1ccc(Br)c(C(F)(F)F)c1 (stereo in doubt) [Compound 49b, rac-(11S)-5-benzyl-12-[4-bromo-3-(trifluoromethyl)benzoyl]-11-methyl-7-[4-(2-methyl-1,2,4-triazol-3-yl)phenyl]-2,3,7,12-tetrazatricyclo[7.4.0.0^2,6]trideca-1(9),3,5-trien-8-one] | 50 to 500 |
| Cc1nnc(-c2ccc(-n3c(=O)c4c(n5ncc(CC(C)C)c35)CN(C(=O)c3ccc(Br)c(Cl)c3)[C@@H](C)C4)cc2)[nH]1 (stereo in doubt) [Compound 66b, rac-(11S)-12-(4-bromo-3-chloro-benzoyl)-5-isobutyl-11-methyl-7-[4-(5-methyl-4H-1,2,4-triazol-3-yl)phenyl]-2,3,7,12-tetrazatricyclo[7.4.0.0^2,6]trideca-1(9),3,5-trien-8-one] | 50 to 500 |
| CNC(=O)c1ccc(-n2c(=O)c3c(n4ncc(CC(C)C)c24)CN(C(=O)c2ccc(Cl)c(C(F)(F)F)c2)[C@H](C)C3)cc1 (stereo in doubt) [Compound 54a, N-methyl-4-[rac-(11R)-12-[4-chloro-3-(trifluoromethyl)benzoyl]-5-isobutyl-11-methyl-8-oxo-2,3,7,12-tetrazatricyclo[7,4.0.0^2,6]trideca-1(9),3,5-trien-7-yl]benzamide] | < 50 |
| C[C@@H]1Cc2c(n3ncc(CC4CCC4)c3n(-c3ccc(-c4nncn4C)cc3)c2=O)CN1C(=O)c1ccc(Br)c(Cl)c1 (stereo in doubt) [Compound 48a, rac-(11R)-12-(4-bromo-3-chloro-benzoyl)-5-(cyclobutylmethyl)-11-methyl-7-[4-(4-methyl-1,2,4-triazol-3-yl)phenyl]-2,3,7,12-tetrazatricyclo[7.4.0.0^2,6]trideca-1(9),3,5-trien-8-one] | < 50 |
| CNC(=O)c1cc(-n2c(=O)c3c(n4ncc(CC(C)C)c24)CN(C(=O)c2ccc(Br)c(C(F)(F)F)c2)[C@H](C)C3)nn1C (stereo in doubt) [Compound 77a, N,2-dimethyl-5-[rac-(11R)-12-[4-bromo-3-(trifluoromethyl)benzoyl]-5-isobutyl-11-methyl-8-oxo-2,3,7,12-tetrazatricyclo[7.4.0.0^2,6]trideca-1(9),3,5-trien-7-yl]pyrazole-3-carboxamide] | < 50 |
| Cc1nn[nH]c1-c1ccc(-n2c(=O)c3c(n4ncc(CC5CC5)c24)CN(C(=O)c2ccc(Br)c(C(F)(F)F)c2)[C@H](C)C3)cc1 (stereo in doubt) [Compound 75a, rac-(11R)-12-[4-bromo-3-(trifluoromethyl)benzoyl]-5-(cyclopropylmethyl)-11-methyl-7-[4-(4-methyl-1H-triazol-5-yl)phenyl]-2,3,7,12-tetrazatricyclo[7.4.0.0^2,6]trideca-1(9),3,5-trien-8-one] | < 50 |
| Cc1nnc(-c2ccc(-n3c(=O)c4c(n5ncc(CC(C)C)c35)CN(C(=O)c3ccc(Br)c(C(F)(F)F)c3)[C@@H](C)C4)cc2)[nH]1 (stereo in doubt) [Compound 59b, rac-(11S)-12-[4-bromo-3-(trifluoromethyl)benzoyl]-5-isobutyl-11-methyl-7-[4-(5-methyl-4H-1,2,4-triazol-3-yl)phenyl]-2,3,7,12-tetrazatricyclo[7.4.0.0^2,6]trideca-1(9),3,5-trien-8-one] | 50 to 500 |
| Cn1nnnc1-c1ccc(-n2c(=O)c3c(n4ncc(Cc5ccccc5)c24)CN(C(=O)c2ccc(Br)c(Cl)c2)CC3)cc1 [Compound 8, 5-benzyl-12-(4-bromo-3-chloro-benzoyl)-7-[4-(1-methyltetrazol-5-yl)phenyl]-2,3,7,12-tetrazatricyclo[7.4.0.0^2,6]trideca-1(9),3,5-trien-8-one] | < 50 |
| CC(C)Cc1cnn2c3c(c(=O)n(-c4ccc(-c5n[nH]c(=O)n5C)cc4)c12)C[C@H](C)N(C(=O)c1ccc(Br)c(C(F)(F)F)c1)C3 (stereo in doubt) [Compound 81b, rac-(11S)-12-[4-bromo-3-(trifluoromethyl)benzoyl]-5-isobutyl-11-methyl-7-[4-(4-methyl-5-oxo-1H-1,2,4-triazol-3-yl)phenyl]-2,3,7,12-tetrazatricyclo[7.4.0.0^2,6]trideca-1(9),3,5-trien-8-one] | 50 to 500 |

From patent publication US11820773B2, “Tricyclic compounds” (ALIGOS THERAPEUTICS, INC., priority 2020, dated 2023)
